According to ChEMBL document CHEMBL3988442, “University of Dundee, Small-Polar-MMV Screening Library” (2021):
“And” between values parts separate entries of the source, which are not always exact repeats. Equal values may be shown once.

Tests used:
[1] = molecular target: T1, Histidine--tRNA ligase (Trypanosoma cruzi (strain CL Brener), UniProt Q4DA54); assay: Trypanosoma cruzi histidyl tRNA synthetase (Tc-HisRS); assay type: functional
T1 sequence (Q4DA54 whole entry): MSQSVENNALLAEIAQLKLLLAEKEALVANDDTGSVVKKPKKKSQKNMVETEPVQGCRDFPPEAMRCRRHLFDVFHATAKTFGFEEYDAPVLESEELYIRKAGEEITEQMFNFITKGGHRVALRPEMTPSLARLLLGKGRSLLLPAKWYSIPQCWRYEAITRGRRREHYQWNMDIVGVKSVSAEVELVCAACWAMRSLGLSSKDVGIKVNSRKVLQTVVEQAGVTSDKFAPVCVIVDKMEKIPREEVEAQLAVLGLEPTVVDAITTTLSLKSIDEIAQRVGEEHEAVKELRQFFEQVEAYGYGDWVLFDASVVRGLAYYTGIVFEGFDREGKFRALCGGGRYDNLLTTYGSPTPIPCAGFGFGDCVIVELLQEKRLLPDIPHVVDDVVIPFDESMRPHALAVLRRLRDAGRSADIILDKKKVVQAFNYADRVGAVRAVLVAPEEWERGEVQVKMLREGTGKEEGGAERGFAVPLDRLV

[2] = molecular target: Chromo domain-containing protein 1 (Saccharomyces cerevisiae (strain ATCC 204508 / S288c) (Baker's yeast), UniProt P32657); assay: ScCHD-1 Enzyme Inhibition Assay; assay type: functional
Chain of Chromo domain-containing protein 1 (P32657 whole entry, the tested form may be a part): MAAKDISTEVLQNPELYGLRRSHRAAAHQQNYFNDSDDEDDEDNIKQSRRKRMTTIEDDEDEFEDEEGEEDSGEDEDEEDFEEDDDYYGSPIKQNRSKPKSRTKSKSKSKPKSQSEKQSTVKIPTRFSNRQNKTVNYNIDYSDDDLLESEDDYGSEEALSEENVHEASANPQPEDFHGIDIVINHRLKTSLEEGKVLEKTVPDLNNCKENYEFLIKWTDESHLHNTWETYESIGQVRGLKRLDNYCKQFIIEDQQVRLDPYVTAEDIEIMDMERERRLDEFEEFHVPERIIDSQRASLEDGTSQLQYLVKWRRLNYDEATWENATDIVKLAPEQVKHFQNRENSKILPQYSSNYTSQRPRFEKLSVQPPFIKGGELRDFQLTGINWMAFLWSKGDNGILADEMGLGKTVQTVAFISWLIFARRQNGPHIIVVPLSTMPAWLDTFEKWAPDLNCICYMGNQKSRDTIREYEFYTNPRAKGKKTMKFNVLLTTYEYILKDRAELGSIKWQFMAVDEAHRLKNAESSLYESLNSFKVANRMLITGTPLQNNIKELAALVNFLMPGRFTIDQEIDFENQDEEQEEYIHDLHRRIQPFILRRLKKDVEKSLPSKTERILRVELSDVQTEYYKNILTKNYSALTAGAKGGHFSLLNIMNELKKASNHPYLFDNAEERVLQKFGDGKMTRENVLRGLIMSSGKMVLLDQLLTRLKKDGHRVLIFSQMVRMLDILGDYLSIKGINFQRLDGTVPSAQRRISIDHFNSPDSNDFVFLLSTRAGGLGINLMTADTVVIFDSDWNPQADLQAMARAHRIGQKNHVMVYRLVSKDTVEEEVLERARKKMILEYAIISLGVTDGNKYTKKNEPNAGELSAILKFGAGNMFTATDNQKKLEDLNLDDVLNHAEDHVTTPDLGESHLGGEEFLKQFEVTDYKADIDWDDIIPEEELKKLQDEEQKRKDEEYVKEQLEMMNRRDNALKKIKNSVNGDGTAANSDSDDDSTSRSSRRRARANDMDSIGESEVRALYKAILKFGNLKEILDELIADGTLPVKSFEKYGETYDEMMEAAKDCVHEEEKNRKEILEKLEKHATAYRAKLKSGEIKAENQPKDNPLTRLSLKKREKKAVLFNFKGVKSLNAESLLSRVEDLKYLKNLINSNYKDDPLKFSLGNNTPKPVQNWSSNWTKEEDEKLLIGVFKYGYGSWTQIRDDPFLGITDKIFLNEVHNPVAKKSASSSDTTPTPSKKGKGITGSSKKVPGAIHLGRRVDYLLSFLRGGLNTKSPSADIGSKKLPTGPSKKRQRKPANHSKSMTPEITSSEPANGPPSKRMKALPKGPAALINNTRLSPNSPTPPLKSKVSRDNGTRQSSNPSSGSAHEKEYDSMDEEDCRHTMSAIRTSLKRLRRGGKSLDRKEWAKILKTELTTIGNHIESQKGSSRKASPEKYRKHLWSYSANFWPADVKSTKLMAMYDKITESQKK

[3] = test system: Schistosoma mansoni; assay: High throughput screening of compounds against Schistosoma mansoni motility; assay type: functional; parameters: dose or concentration left out as unconfirmed
[4] = molecular target: Tryptophan--tRNA ligase (Mycobacterium tuberculosis (strain ATCC 25618 / H37Rv), UniProt P9WFT3); assay: Biochemical assay for Mt-TrpRS; assay type: functional
Chain of Tryptophan--tRNA ligase (P9WFT3 whole entry): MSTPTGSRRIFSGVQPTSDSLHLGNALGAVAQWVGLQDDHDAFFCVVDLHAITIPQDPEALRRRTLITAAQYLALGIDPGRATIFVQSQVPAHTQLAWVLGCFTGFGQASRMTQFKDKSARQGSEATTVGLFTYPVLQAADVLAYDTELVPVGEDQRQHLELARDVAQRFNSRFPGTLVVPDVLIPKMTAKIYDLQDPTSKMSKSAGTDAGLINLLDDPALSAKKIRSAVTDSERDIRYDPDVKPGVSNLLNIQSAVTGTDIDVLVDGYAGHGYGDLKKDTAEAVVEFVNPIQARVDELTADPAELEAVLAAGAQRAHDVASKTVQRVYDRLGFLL

[5] = test system: Wolbachia pipientis; assay: Anti-Wolbachia Cell-Based Screen; assay type: functional
[6] = microbe, parasite or virus in culture; conditions: Mycobacterium tuberculosis, 96 h, read-out: pIC50 (converted)
[7] = microbe, parasite or virus in culture; conditions: Mycobacterium tuberculosis, 72 h, read-out: pIC50 (converted)
[8] = molecular target: T2, Coenzyme A biosynthesis bifunctional protein CoaBC (Mycobacterium tuberculosis (strain ATCC 25618 / H37Rv), UniProt P9WNZ1); assay: Biomol Green assay for MtCoaBC inhibitor, OD650 read; assay type: functional
T2 sequence (P9WNZ1 whole entry): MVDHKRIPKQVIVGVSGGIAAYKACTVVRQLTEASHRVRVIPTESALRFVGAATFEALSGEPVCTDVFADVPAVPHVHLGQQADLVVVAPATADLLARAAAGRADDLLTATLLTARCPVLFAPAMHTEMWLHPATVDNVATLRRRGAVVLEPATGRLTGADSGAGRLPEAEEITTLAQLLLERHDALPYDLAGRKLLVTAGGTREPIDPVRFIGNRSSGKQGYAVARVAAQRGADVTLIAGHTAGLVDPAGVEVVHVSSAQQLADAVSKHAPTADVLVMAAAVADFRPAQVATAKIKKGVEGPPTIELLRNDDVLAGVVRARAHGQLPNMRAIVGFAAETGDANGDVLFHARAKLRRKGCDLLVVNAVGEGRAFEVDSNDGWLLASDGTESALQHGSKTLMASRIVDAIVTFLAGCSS

[9] = molecular target: ClpP1P2 (Mycobacterium tuberculosis (strain ATCC 25618 / H37Rv), UniProt P9WPC3+P9WPC5); assay: in vitro assay to detect presence of AMC directly proportional to the activity of ClpP1P2. GHDDI collaboration.; assay type: functional
Chain of ClpP1P2 (P9WPC5 whole entry): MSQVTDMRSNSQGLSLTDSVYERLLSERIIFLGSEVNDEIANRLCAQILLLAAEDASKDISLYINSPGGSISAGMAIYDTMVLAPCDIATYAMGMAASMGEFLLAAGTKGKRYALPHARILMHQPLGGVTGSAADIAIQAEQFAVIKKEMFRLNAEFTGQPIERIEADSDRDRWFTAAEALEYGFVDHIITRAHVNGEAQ
Chain of ClpP1P2 (P9WPC3 whole entry): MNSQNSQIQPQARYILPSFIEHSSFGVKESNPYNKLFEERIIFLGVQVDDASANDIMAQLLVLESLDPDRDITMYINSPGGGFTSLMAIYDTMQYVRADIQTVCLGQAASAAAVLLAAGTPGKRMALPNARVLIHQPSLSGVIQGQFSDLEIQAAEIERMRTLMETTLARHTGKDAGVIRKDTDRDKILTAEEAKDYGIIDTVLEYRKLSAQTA

[10] = molecular target: T3, Histidine--tRNA ligase (Leishmania infantum, UniProt A4I591); assay: Leishmania infantum Histidine tRNA synthetase (LdHisRS); assay type: functional
T3 sequence (A4I591 whole entry): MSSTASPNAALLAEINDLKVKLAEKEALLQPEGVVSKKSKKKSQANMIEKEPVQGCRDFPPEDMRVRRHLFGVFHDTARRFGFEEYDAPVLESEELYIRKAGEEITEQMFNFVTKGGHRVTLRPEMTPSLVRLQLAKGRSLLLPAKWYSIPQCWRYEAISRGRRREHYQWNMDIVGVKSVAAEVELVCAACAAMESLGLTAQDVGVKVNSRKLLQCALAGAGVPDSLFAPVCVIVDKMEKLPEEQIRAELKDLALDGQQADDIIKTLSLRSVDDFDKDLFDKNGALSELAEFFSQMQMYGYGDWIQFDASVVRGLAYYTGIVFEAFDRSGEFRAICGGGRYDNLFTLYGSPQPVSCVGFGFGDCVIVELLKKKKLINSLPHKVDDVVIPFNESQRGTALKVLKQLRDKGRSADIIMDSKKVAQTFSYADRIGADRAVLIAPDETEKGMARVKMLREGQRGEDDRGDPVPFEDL

[11] = molecular target: Sialic acid-binding Ig-like lectin 9 (Homo sapiens, UniProt Q9Y336); assay: Hs-Siglec9 ALPHAscreen SOP 20170721
Chain of Sialic acid-binding Ig-like lectin 9 (Q9Y336 whole entry): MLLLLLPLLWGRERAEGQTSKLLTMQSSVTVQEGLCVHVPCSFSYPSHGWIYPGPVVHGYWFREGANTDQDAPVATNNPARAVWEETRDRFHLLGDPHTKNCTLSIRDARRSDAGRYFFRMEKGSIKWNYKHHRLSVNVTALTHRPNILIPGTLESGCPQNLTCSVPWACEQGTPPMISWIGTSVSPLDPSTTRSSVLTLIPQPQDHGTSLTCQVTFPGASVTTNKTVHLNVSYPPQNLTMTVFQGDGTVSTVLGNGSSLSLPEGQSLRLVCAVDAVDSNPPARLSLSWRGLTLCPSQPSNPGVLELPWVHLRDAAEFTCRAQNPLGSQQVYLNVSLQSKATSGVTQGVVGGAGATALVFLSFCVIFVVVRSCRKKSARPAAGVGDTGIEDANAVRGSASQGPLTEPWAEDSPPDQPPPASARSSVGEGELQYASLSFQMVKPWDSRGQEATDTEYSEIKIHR

| Structure (SMILES) | IC50 [1] | other results |
| --- | --- | --- |
| Cc1nc(CNC2CCCN(c3cccnn3)C2)no1 (centres undefined) | > 100 µM |  |
| CN(Cc1nc2ccccc2n1C)CC1CCCN1c1cccnn1 (centres undefined) | 52.7 µM and 52.1 µM |  |
| Cc1ccnc(C2CN(Cc3ccc(-c4ccccc4C(=O)O)o3)C2)n1 | 48.1 µM and 40.7 µM |  |
| O=C(O)c1cncc(Cc2ccc(F)cc2)c1 | > 100 µM |  |
| O=C(O)c1ccccc1-c1ccc(CN2CC(c3ccncn3)C2)o1 | 52.3 µM and 57.8 µM |  |
| Cc1noc(C)c1CN(C)CC1CCCN1c1cccnn1 (centres undefined) | > 100 µM |  |
| Nc1cc(-c2nccnc2N2CCCC2)c2cc[nH]c2n1 | 64.4 µM and 75.3 µM |  |
| COCCN1CCC2(CCN(c3ncccn3)CC2)C1=O | > 100 µM |  |
| Cc1ccc(N2CCCC3(COCCN(c4ncccn4)C3)C2)nn1 (centres undefined) | > 100 µM |  |
| COc1ccc(CNC(=O)C2(C#N)CCCC2)cc1 |  | IC50 [2]: > 29.5 µM; Percent Effect [3]: -106.9%; IC50 [4]: > 195 µM |
| O=C(O)c1cncc(Cc2ccccc2F)c1 | > 100 µM |  |
| Cc1nc(C)n(CC2CCCN2Cc2nc3ccccc3nc2C)n1 (centres undefined) | > 100 µM |  |
| O=C1N(CC2CCCC2)CCC12CCN(c1ncc(F)cn1)CC2 | > 100 µM |  |
| Cc1ccc(N2CCCC3(COCCN(c4cnccn4)C3)C2)nn1 (centres undefined) | > 100 µM |  |
| Cc1cc(NC(=O)NCCc2ccsc2)n(C)n1 |  | IC50 [2]: > 29.5 µM; Percent Effect [3]: 10.29%; IC50 [4]: > 195 µM |
| c1cnnc(N2CCCC(NCc3nc(C4CC4)no3)C2)c1 (centres undefined) | 52.8 µM and 48.2 µM |  |
| Cc1nc(C)n(CC2CCCN2Cc2nc3ccccc3n2C)n1 (centres undefined) | > 100 µM |  |
| Cc1ccc(N2CCCC3(COCCN(c4ccccn4)C3)C2)nn1 (centres undefined) | > 100 µM |  |
| c1cnnc(N2CCCC(NCc3nc(-c4cccs4)no3)C2)c1 (centres undefined) | > 100 µM |  |
| COc1ccc(C[C@H]2CN(c3nnc(C)s3)CC[C@@H]2OC)cc1.O=C(O)C(F)(F)F |  | pIC50 [5]: 5.531; IC50 ([5]; Wolbachia pipientis): 3.58 µM; IC50 [2]: > 29.5 µM; IC50 [6]: 24.7 µM; IC50 [7]: > 50.1 µM |
| Cc1cnc(N2CCC3(CCN(CC4CCCC4)C3=O)CC2)nc1 | > 100 µM |  |
| c1ccc(CNc2ncc(CN3CCCN4CCC[C@H]4C3)cn2)cc1 | 39.6 µM and 38.3 µM |  |

| Structure (SMILES) | IC50 [1] | other results |
| --- | --- | --- |
| CCN(CC)CCNC(=O)CCc1c(C)nn(-c2ccccc2Br)c1C | > 100 µM |  |
| CN(Cc1nc2ccccc2o1)CC1CCCN1c1cccnn1 (centres undefined) | > 100 µM |  |
| CCCn1cc(NC(=O)c2ccc(N(C)CC)cc2)ccc1=O | > 100 µM |  |
| CC1CCN(c2ccc(C(=O)N3CCCC3c3nncn3C)cn2)CC1 (centres undefined) | > 100 µM |  |
| Cc1nc(C)n(CC2CCCN2Cc2nc3ccccc3s2)n1 (centres undefined) | > 100 µM |  |
| O=C1CC(c2ccco2)c2sc(C(=O)O)c(-c3ccccc3)c2N1 (centres undefined) |  | IC50 [8]: > 30.2 µM; IC50 [2]: 20.8 µM and 21.6 µM; IC50 [9]: > 100 µM; IC50 [10]: 17.3 µM and 12.6 µM; IC50 [11]: > 30.2 µM |
| Cc1nc(C)n(CC2CCCN2Cc2nc(N)c3ccccc3n2)n1 (centres undefined) | > 100 µM |  |
| CC(C)(O)CCc1cccc(C(=O)NCc2nccs2)c1 | > 100 µM |  |
| Cc1ccc(N2CC3(CCN(c4nccs4)C3)C2)nn1 | > 100 µM |  |
| CCN(CC)CCNC(=O)CCc1c(C)nn(-c2cccc(Cl)c2)c1C | > 100 µM |  |
| Fc1ccc(F)c(CN2CCC(c3cnccn3)CC2)c1 | > 100 µM |  |
| c1ccc(CNc2ncc(CN3CC[C@H]4CC[C@@H](C3)N4)cn2)cc1 | > 100 µM |  |
| O=C(O)c1cncc(Cc2cccc(F)c2)c1 | > 100 µM |  |
| CN(Cc1nc(N)c2ccccc2n1)CC1CCCN1c1cccnn1 (centres undefined) | > 100 µM |  |
| O=C1N(CC2CC2)CCC12CCN(c1ncccn1)CC2 | > 100 µM |  |
| O=C(O)CNc1cc(-c2nccnc2N2CCCC2)c2cc[nH]c2n1 | 38.4 µM and 34.5 µM |  |
| Cc1nc(CN(C)CC2CCCN2c2cccnn2)oc1C (centres undefined) | > 100 µM |  |
| Cc1nc(C)n(CC2CCCN2Cc2nc3ccccc3o2)n1 (centres undefined) | > 100 µM |  |
| NCC1Cc2cccc(-c3nccc(N4CCC(O)CC4)n3)c2O1 (centres undefined) | > 100 µM |  |
| CN(C)[C@H]1CCCCN(Cc2cnc(NCc3ccccc3)nc2)C1 | > 100 µM |  |
| CN1CCN2CCN(Cc3cnc(NCc4ccccc4)nc3)CC2C1 (centres undefined) | > 100 µM |  |
| c1cncc(-c2noc(CNC3CCCN(c4cccnn4)C3)n2)c1 (centres undefined) | > 100 µM |  |

| Structure (SMILES) | IC50 [1] | other results |
| --- | --- | --- |
| CCN(CC)CCNC(=O)CCc1c(C)nn(-c2ccccc2Cl)c1C | > 100 µM |  |
| CC(C)n1ccnc1CNC(=O)c1cccc(CCC(C)(C)O)c1 | > 100 µM |  |
| Cc1cnc(N2CCCC3(COCCN(c4ccc(C)nn4)C3)C2)nc1 (centres undefined) | > 100 µM |  |
| NC(=O)C1CCN(C(=O)c2cccc(CN3CCOCC3)c2)CC1 |  | IC50 [2]: > 29.5 µM; Percent Effect [3]: 38.13% |
| O=C(O)c1ccc2ccc(N3CCN(CC4CC4)CC3)n2c1 | 38.6 µM and 57.7 µM |  |
| Cc1nc2ccccc2nc1CN(C)C1CCCN(c2cccnn2)C1 (centres undefined) | > 100 µM |  |
| COCCc1noc(CNC2CCCN(c3cccnn3)C2)n1 (centres undefined) | > 100 µM |  |
| Cc1nn(-c2ccccc2Cl)c(C)c1CCC(=O)NCCS(C)(=O)=O | > 100 µM |  |
| Cc1nccc(C2CN(Cc3ccc(-c4ccccc4C(=O)O)o3)C2)n1 | > 100 µM |  |
| CCc1cnc(CN(C)C2CCN(CCc3ccccn3)C2)o1 (centres undefined) |  | IC50 [2]: > 29.5 µM; Percent Effect [3]: -35.57% |
| COc1ccccc1CN(C)C(=O)c1cc(CN2CCC(O)CC2)on1 |  | IC50 [2]: > 29.5 µM; Percent Effect [3]: -57.63% |
| Cc1nc(C)n(CC2CCCN2Cc2nc3ccccc3c(=O)[nH]2)n1 (centres undefined) | > 100 µM |  |
| Cc1noc([C@@H]2CCCN2C(=O)C2CCN(C(=O)C3CCC3)CC2)n1 |  | IC50 [2]: > 29.5 µM; Percent Effect [3]: 8.394% |
| CC(C)(O)CCc1cccc(C(=O)NCc2cnn3cccnc23)c1 | > 100 µM |  |
| c1cnnc(N2CCCC(NCc3nc(-c4ccsc4)no3)C2)c1 (centres undefined) | > 100 µM |  |
| CC(C)NC(=O)c1nnn(-c2cccc(C(F)(F)F)c2)c1C1CC1 |  | IC50 [2]: > 29.5 µM; Percent Effect [3]: -32.68% |
| O=C(NS(=O)(=O)c1ccccc1Cl)c1cccc2c1OCCO2 |  | IC50 [2]: > 29.5 µM; Percent Effect [3]: -35.61% |
| CSCCC(=O)N1CCCC1c1ccsc1 (centres undefined) |  | IC50 [2]: > 29.5 µM; Percent Effect [3]: -17.9%; IC50 [4]: > 195 µM |
| O=C(CN1CCc2ccccc21)Nc1ccc(OC(F)F)cc1 |  | IC50 [2]: > 29.5 µM; Percent Effect [3]: 42%; IC50 [4]: > 195 µM |
| COc1ccc(C)cc1S(=O)(=O)NCC(c1cccn1C)N(C)C (centres undefined) |  | IC50 [2]: > 29.5 µM; Percent Effect [3]: -44.63% |
| O=C(NCC(O)c1ccccc1Cl)c1cccc(-n2cnnn2)c1 (centres undefined) |  | IC50 [2]: > 29.5 µM; Percent Effect [3]: -46.05% |
